Assay results as given in PubChem BioAssay AID248 (DTP/NCI, 2004).
Values joined by “and” are separate entries in the source; they are usually repeats but may differ in a detail not shown here. Identical values can stand only once. Toxic doses and inconclusive results are not listed. No stated cut-off is given here; in the data, active means T/C of 150% or more; inactive means T/C below 125%.

Tested on: L1210 leukemia ip in BDF1 mice, survival T/C
Assay: NCI In Vivo Anticancer Drug Screen. Data for tumor model L1210 Leukemia (intraperitoneal) in B6D2F1 (BDF1) mice
Settings: higher = longer survival
Summary of the method: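 Value reflects the ratio of survival in compound-treated mice to survival in vehicle-treated controls, with both groups carrying the same transplanted tumor.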

[1] = endpoint: mean survival time, dose: 50.0 mg/kg/injection, schedule: Q01DX009 (ip), vehicle: Klucel (hydroxypropylcellulose) (HPC)
[2] = endpoint: mean survival time, dose: 100.0 mg/kg/injection, schedule: Q01DX009 (ip), vehicle: Klucel (hydroxypropylcellulose) (HPC)
[3] = endpoint: mean survival time, dose: 200.0 mg/kg/injection, schedule: Q01DX009 (ip), vehicle: Klucel (hydroxypropylcellulose) (HPC)
[4] = endpoint: mean survival time, dose: 50.0 mg/kg/injection, schedule: Q01DX001 (ip), vehicle: saline
[5] = endpoint: mean survival time, dose: 100.0 mg/kg/injection, schedule: Q01DX001 (ip), vehicle: saline
[6] = endpoint: mean survival time, dose: 200.0 mg/kg/injection, schedule: Q01DX001 (ip), vehicle: saline
[7] = endpoint: mean survival time, dose: 400.0 mg/kg/injection, schedule: Q01DX001 (ip), vehicle: saline
[8] = endpoint: mean survival time, dose: 100.0 mg/kg/injection, schedule: Q04DX003 (ip), vehicle: Klucel (hydroxypropylcellulose) (HPC)
[9] = endpoint: mean survival time, dose: 200.0 mg/kg/injection, schedule: Q04DX003 (ip), vehicle: Klucel (hydroxypropylcellulose) (HPC)
[10] = endpoint: mean survival time, dose: 400.0 mg/kg/injection, schedule: Q01DX009 (ip), vehicle: Klucel (hydroxypropylcellulose) (HPC)
[11] = endpoint: mean survival time, dose: 400.0 mg/kg/injection, schedule: Q04DX003 (ip), vehicle: Klucel (hydroxypropylcellulose) (HPC)
[12] = endpoint: mean survival time, dose: 200.0 mg/kg/injection, schedule: Q04DX003 (ip), vehicle: saline with Tween-80

Measured: T/C

Nc1[nH][nH]c(=O)c1N=O
inactive: [1] 95 % of control | [2] 111 % of control | endpoint: mean survival time, dose: 100.0 mg/kg/injection, schedule: Q04DX002 (ip), vehicle: saline 103 % of control | [3] 88 % of control | endpoint: mean survival time, dose: 200.0 mg/kg/injection, schedule: Q04DX002 (ip), vehicle: saline 111 % of control | endpoint: mean survival time, dose: 400.0 mg/kg/injection, schedule: Q04DX002 (ip), vehicle: saline 92 % of control

CCCCCCCCCCC1Cc2ccccc2C1
inactive: [4] 95 % of control | [5] 98 % of control | [6] 104 % of control | [7] 93 % of control

COc1nc(=O)n(C2OC(CO)C(O)C2O)cc1F (centres undefined)
inactive: [4] 95 % of control | [5] 90 % of control | [6] 93 % of control | [7] 90 % of control

N=C(N)Sc1cccc[n+]1[O-]
inactive: [5] 105 % of control | [6] 111 % of control

ClC(Cl)(Cl)C1OCOC(C(Cl)(Cl)Cl)OCO1 (centres undefined)
inactive: [2] 94 % of control | [8] 98 % of control | [3] 93 % of control | [9] 98 % of control | [10] 94 % of control | [11] 102 % of control

O=C(Nc1ccc(Nc2ccccc2)cc1)Nc1cccc(F)c1
inactive: endpoint: mean survival time, dose: 100.0 mg/kg/injection, schedule: Q01DX009 (ip), vehicle: saline with Tween-80 88 % of control | endpoint: mean survival time, dose: 200.0 mg/kg/injection, schedule: Q01DX009 (ip), vehicle: saline with Tween-80 96 % of control

CC1CCCN(c2ccc([N+](=O)[O-])cc2[N+](=O)[O-])C1 (centres undefined)
inactive: [2] 105 % of control | [8] 99 % of control | [3] 96 % of control | [9] 92 % of control | [10] 99 % of control | [11] 97 % of control

c1ccc2c(c1)C1c3ccccc3C2C2COCC12 (centres undefined)
inactive: [1] 113 % of control | [2] 108 % of control | [8] 98 % of control | [9] 100 % of control

CCCCN1C(=O)C/C(=C2\CC(=O)N(CCCC)C2=O)C1=O
inactive: [2] 91 % of control | [8] 87 % of control | [3] 94 % of control | [9] 101 % of control | [10] 91 % of control | [11] 94 % of control

CC(CCc1ccccn1)C(=O)c1ccccc1 (centres undefined)
inactive: endpoint: mean survival time, dose: 222.0 mg/kg/injection, schedule: Q01DX Z (ip), vehicle: methylcellulose (MC) 93 % of control | endpoint: mean survival time, dose: 333.0 mg/kg/injection, schedule: Q01DX Z (ip), vehicle: methylcellulose (MC) 98 % of control | endpoint: mean survival time, dose: 500.0 mg/kg/injection, schedule: Q01DX Z (ip), vehicle: methylcellulose (MC) 94 % of control

NC(N)=NC(CC(=O)O)C(=O)O (centres undefined)
inactive: endpoint: mean survival time, dose: 100.0 mg/kg/injection, schedule: Q01DX Z (ip), vehicle: methylcellulose (MC) 92 % of control | endpoint: mean survival time, dose: 200.0 mg/kg/injection, schedule: Q01DX Z (ip), vehicle: methylcellulose (MC) 92 % of control

CCOC(=O)C(CC(C(=O)OCC)C(=O)c1ccccc1)C(=O)c1ccccc1 (centres undefined)
inactive: [5] 92 % of control | [6] 90 % of control | [7] 97 % of control

CCOC(=O)C(Cc1ccccc1)C1=NC(C)(C)CC(C)O1 (centres undefined)
inactive: endpoint: mean survival time, dose: 10.0 mg/kg/injection, schedule: Q01DX009 (ip), vehicle: alcohol 100 % of control | endpoint: mean survival time, dose: 200.0 mg/kg/injection, schedule: Q01DX009 (ip), vehicle: alcohol 104 % of control | endpoint: mean survival time, dose: 400.0 mg/kg/injection, schedule: Q01DX009 (ip), vehicle: alcohol 102 % of control

CC(=O)OC1CCCC23CC(CC12)C(C)(C)C3Br (centres undefined)
inactive: [2] 95 % of control | [8] 97 % of control | [3] 100 % of control | [9] 93 % of control | [10] 97 % of control | [11] 95 % of control

O=c1o[nH]c(-c2ccccc2)c1-c1ccccc1
inactive: endpoint: mean survival time, dose: 1.56 mg/kg/injection, schedule: Q04DX003 (ip), vehicle: saline 98 % of control | endpoint: mean survival time, dose: 3.12 mg/kg/injection, schedule: Q04DX003 (ip), vehicle: saline 102 % of control | endpoint: mean survival time, dose: 6.25 mg/kg/injection, schedule: Q04DX003 (ip), vehicle: saline 102 % of control | endpoint: mean survival time, dose: 12.5 mg/kg/injection, schedule: Q04DX003 (ip), vehicle: saline 94 % of control | [12] 93 % of control

Cc1ccc(S(=O)(=O)OC2CN(S(C)(=O)=O)CC(OS(=O)(=O)c3ccc(C)cc3)CN(S(C)(=O)=O)C2)cc1 (centres undefined)
inactive: endpoint: mean survival time, dose: 25.0 mg/kg/injection, schedule: Q04DX002 (ip), vehicle: Klucel (hydroxypropylcellulose) (HPC) 89 % of control | endpoint: mean survival time, dose: 50.0 mg/kg/injection, schedule: Q04DX002 (ip), vehicle: Klucel (hydroxypropylcellulose) (HPC) 103 % of control | endpoint: mean survival time, dose: 100.0 mg/kg/injection, schedule: Q04DX002 (ip), vehicle: Klucel (hydroxypropylcellulose) (HPC) 92 % of control

NNC(=O)CCSc1ccccc1
inactive: endpoint: mean survival time, dose: 12.5 mg/kg/injection, schedule: Q01DX009 (ip), vehicle: saline with Tween-80 89 % of control | endpoint: mean survival time, dose: 25.0 mg/kg/injection, schedule: Q01DX009 (ip), vehicle: saline with Tween-80 99 % of control | endpoint: mean survival time, dose: 50.0 mg/kg/injection, schedule: Q01DX009 (ip), vehicle: saline with Tween-80 105 % of control

CC(=O)O[C@]1(C(C)=O)CC[C@H]2[C@@H]3C[C@H](C)C4=CC(=O)C=C[C@]4(C)[C@@]3(F)[C@@H](O)C[C@@]21C
inactive: endpoint: mean survival time, dose: 12.5 mg/kg/injection, schedule: Q01DX010 (sc), vehicle: steriod suspending solution 96 % of control and 98 % of control | endpoint: mean survival time, dose: 25.0 mg/kg/injection, schedule: Q01DX009 (sc), vehicle: steriod suspending solution 103 % of control and 104 % of control and 111 % of control | endpoint: mean survival time, dose: 25.0 mg/kg/injection, schedule: Q01DX010 (sc), vehicle: steriod suspending solution 98 % of control and 101 % of control | endpoint: mean survival time, dose: 50.0 mg/kg/injection, schedule: Q01DX009 (sc), vehicle: steriod suspending solution 93 % of control and 95 % of control and 111 % of control | endpoint: mean survival time, dose: 50.0 mg/kg/injection, schedule: Q01DX010 (sc), vehicle: steriod suspending solution 95 % of control and 107 % of control | endpoint: mean survival time, dose: 100.0 mg/kg/injection, schedule: Q01DX009 (sc), vehicle: steriod suspending solution 98 % of control (2×) and 111 % of control | endpoint: mean survival time, dose: 100.0 mg/kg/injection, schedule: Q01DX010 (sc), vehicle: steriod suspending solution 98 % of control and 107 % of control | endpoint: mean survival time, dose: 200.0 mg/kg/injection, schedule: Q01DX009 (sc), vehicle: steriod suspending solution 95 % of control (2×) and 111 % of control | endpoint: median survival time, dose: 25.0 mg/kg/injection, schedule: Q01DX009 (sc), vehicle: steriod suspending solution 106 % of control | endpoint: median survival time, dose: 50.0 mg/kg/injection, schedule: Q01DX009 (sc), vehicle: steriod suspending solution 100 % of control | endpoint: median survival time, dose: 100.0 mg/kg/injection, schedule: Q01DX009 (sc), vehicle: steriod suspending solution 100 % of control | endpoint: median survival time, dose: 200.0 mg/kg/injection, schedule: Q01DX009 (sc), vehicle: steriod suspending solution 100 % of control

CC(=O)[O][Hg][c]1cc2c(cc1O)Cc1cc([N+](=O)[O-])ccc1-2
inactive: endpoint: mean survival time, dose: 12.5 mg/kg/injection, schedule: Q01DX001 (ip), vehicle: carboxymethylcellulose (CMC) 105 % of control | endpoint: mean survival time, dose: 25.0 mg/kg/injection, schedule: Q01DX001 (ip), vehicle: carboxymethylcellulose (CMC) 100 % of control | endpoint: mean survival time, dose: 50.0 mg/kg/injection, schedule: Q01DX001 (ip), vehicle: carboxymethylcellulose (CMC) 97 % of control

CCOC(=O)C(I)CC (centres undefined)
inactive: endpoint: mean survival time, dose: 25.0 mg/kg/injection, schedule: Q01DX009 (ip), vehicle: water 107 % of control | endpoint: mean survival time, dose: 50.0 mg/kg/injection, schedule: Q01DX009 (ip), vehicle: water 93 % of control | endpoint: mean survival time, dose: 100.0 mg/kg/injection, schedule: Q01DX009 (ip), vehicle: water 87 % of control

CN(C)c1ccc(I)cc1
inactive: endpoint: mean survival time, dose: 25.0 mg/kg/injection, schedule: Q01DX001 (ip), vehicle: saline with Tween-80 107 % of control | endpoint: mean survival time, dose: 50.0 mg/kg/injection, schedule: Q01DX001 (ip), vehicle: saline with Tween-80 110 % of control

CCOC(=O)C(Cc1ccc(Cl)c(Cl)c1)(NC(C)=O)C(=O)OCC
inactive: endpoint: mean survival time, dose: 50.0 mg/kg/injection, schedule: Q04DX003 (ip), vehicle: saline with Tween-80 102 % of control | endpoint: mean survival time, dose: 100.0 mg/kg/injection, schedule: Q04DX003 (ip), vehicle: saline with Tween-80 94 % of control | [12] 96 % of control

CCCCCCCCCCCC(=O)Nc1cc(C(C)C)ccc1C
inactive: [5] 87 % of control | endpoint: mean survival time, dose: 100.0 mg/kg/injection, schedule: Q04DX003 (ip), vehicle: saline 88 % of control | [6] 86 % of control | [7] 91 % of control

COc1cc(C=Nc2ccc(C(=O)O)c(O)c2)ccc1N(CCCl)CCCl
inactive: endpoint: mean survival time, dose: 11.0 mg/kg/injection, schedule: Q01DX001 (ip), vehicle: carboxymethylcellulose (CMC) 118 % of control

O=C(Nc1ccc(Nc2ccccc2)cc1)Nc1cc(C(F)(F)F)ccc1Cl
inactive: [2] 103 % of control | [3] 93 % of control | [10] 87 % of control
